Experimental data as given in the SangsterLogP compilation.

Row | Compound | logP
1 | C[C@H]1CCCC[C@@]1(c1cccs1)N1CCCCC1 | 7.29
2 | c1ccc(C2(N3CCCCC3)CCCCC2)cc1 | 5.74
3 | C[C@H]1CCC[C@](c2ccccc2)(N2CCCCC2)C1 | 5.86
4 | CC1CCC(c2ccccc2)(N2CCCCC2)CC1 (stereo not given) | 5.66
5 | CO[C@H]1CCCC[C@@]1(c1ccccc1)N1CCCCC1 | 4.73
6 | CC(C)(C)C1CCC(c2ccccc2)(N2CCCCC2)CC1 (stereo not given) | 6.67
7 | C[C@H]1CCCC[C@@]1(c1ccccc1)N1CCCCC1 | 6.75
8 | c1csc(C2(N3CCCCC3)CCCCC2)c1 | 6.02
9 | CO[C@@H]1CCCC[C@]1(c1cccs1)N1CCCCC1 | 4.89
10 | C[C@@H]1CC(C)(C)C[C@](c2ccccc2)(N2CCCCC2)C1 | 6.35
